The values below come from PubChem BioAssay (NCI).

What all share (test): inhibition of tumour cell growth, NCI panel, 48 h
For assay [1], the system named is A498 renal.
In assay [2] the test system is A549 NSCLC.
Assay [3] concerns ACHN renal.
Assay [4] deals with DU-145 prostate.
In assay [5] the test system is MCF7 breast.
For assay [6], the system named is OVCAR-5 ovarian.
The test system of assay [7] is SK-MEL-2 melanoma.
The test system of assay [8] is SK-OV-3 ovarian.

Values joined by “and” are separate entries in the source; they are usually repeats but may differ in a detail not shown here. Equal values may be shown once.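 Compound exposure: 48 hours, 5 concentrations, 96-well plates. At the GI50, growth is halved. TGI: concentration producing complete growth inhibition.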

As for `COC(=O)c1cc2c3ccccc3n3c(=O)c4cc5ccc(N(S(=O)(=O)c6ccc(C)cc6)S(=O)(=O)c6ccc(C)cc6)cc5nc4c(n1)c23`, the GI50 in assay [1] was 34800 nM; in assay [2] it was over 100000 nM; in assay [3] it was 17.2 µM; in assay [4] it was over 100000 nM; in assay [5], over 100000 nM; in assay [6], over 100000 nM. Further, the GI50 in assay [7] is 25900 nM; in assay [8] it was 26.2 µM. For the same compound, the TGI in assay [1] is 70.2 µM; in assay [2] it was over 100 µM; in assay [3], 82.6 µM; in assay [4], over 100 µM; in assay [5], over 100 µM; in assay [6], over 100 µM. In addition, the TGI in assay [7] and in assay [8] was over 100 µM in each case.
For `FC(F)(c1ccc2ncccc2c1)c1nnc2ccc(-c3ccncc3)nn12`, the GI50 in assay [1] is 19300 nM; in assay [2] it was 76800 nM; in assay [3] it was 50.2 µM; in assay [4], over 100000 nM; in assay [5], 95300 nM; in assay [6], over 100000 nM. Further, the GI50 in assay [7] is over 100000 nM; in assay [8] it was over 100 µM. Further, the TGI in assay [1], in assay [2], in assay [3], in assay [4], in assay [5] and in assay [6] was over 100 µM each time. For the same compound, the TGI in assay [7] and in assay [8] was over 100 µM each time.
Regarding `O=S(=O)(NC1=NCCN1C(=S)SN1CCn2c1nsc2=S)c1cccc2ccccc12`, the GI50 is 29500 nM in assay [1]; 35200 nM in assay [2]; 27.5 µM in assay [3]; 19300 nM in assay [4]; 7270 nM in assay [5]; 61000 nM in assay [6]. Further, the GI50 was 17500 nM in assay [7] and 31.1 µM in assay [8]. Besides, the TGI in assay [1] is 78 µM; in assay [2], over 100 µM; in assay [3] it was over 100 µM; in assay [4], 49.2 µM; in assay [5], 58 µM; in assay [6], over 100 µM. Moreover, the TGI in assay [7] is 44.1 µM; in assay [8], 91.5 µM.
Turning to `OCc1ccc(N2CCc3cccc(F)c3C2)cc1Cl`, the GI50 was under 14.5 nM in assay [1]; 189 nM in assay [2]; 20.7 µM in assay [3]; 4500 nM in assay [4]; 25.3 nM in assay [6]; 1.89 µM in assay [8]. Besides, the TGI was found to be 0.0405 µM in assay [1]; 15.7 µM in assay [2]; 67.3 µM in assay [3]; 30.3 µM in assay [4]; 53.4 µM in assay [5]; 0.151 µM in assay [6]. Also, the figures for the TGI in assay [7] and in assay [8] were 30.5 µM and 14.6 µM, respectively.
Take `CN(CCCCCl)P(=O)(OCCS(=O)(=O)CC(NC(=O)CCC(N)C(=O)O)C(=O)NC(C(=O)O)c1ccccc1)OCC1OC(n2ccc(N)nc2=O)C(F)(F)C1O` (centres undefined): the GI50 is 943 nM in assay [1]; 125 nM in assay [2]; 35.9 nM in assay [4]; 872 nM in assay [6]; over 63700 nM in assay [7]; 0.784 µM in assay [8]. Also, the TGI was over 100 µM in assay [1]; over 100 µM in assay [2]; over 33.8 µM in assay [3]; 25.9 µM in assay [4]; over 100 µM in assay [5]; over 100 µM in assay [6]. Moreover, the TGI in assay [7] and in assay [8] was over 100 µM in each case.
Regarding `C[C@@H]1C[C@H](C)CN(S(=O)(=O)c2ccc3c(NO)c4ccc(S(=O)(=O)N5C[C@H](C)C[C@H](C)C5)cc4c(N=O)c3c2)C1`, the TGI in assay [1] was over 1 µM; in assay [2] it was 0.327 µM; in assay [3], 0.293 µM; in assay [4] it was 0.268 µM; in assay [5] it was 0.357 µM; in assay [6], 0.4 µM. Besides, the TGI came out at 0.403 µM in assay [7] and 0.248 µM in assay [8]. The GI50 in assay [2] was 170 nM; in assay [3], 0.143 µM; in assay [4], 115 nM; in assay [5], 176 nM; in assay [6] it was 173 nM; in assay [7], 194 nM. In assay [8], the GI50 is 0.122 µM.
For the compound `CC(C)c1cnn2c(NCc3ccccc3)cc(NC[C@H]3CCNC[C@@H]3O)nc12`, the GI50 in assay [1] is 1630 nM and 2590 nM; in assay [2], 342 nM and 272 nM; in assay [3] it was 0.833 µM and 1.55 µM; in assay [4], 400 nM and 309 nM; in assay [5] it was 130 nM and 186 nM; in assay [6], 312 nM and 575 nM. For the same compound, the GI50 in assay [7] is 334 nM and 668 nM; in assay [8], 4.71 µM and 3.41 µM. Further, the TGI was 4.2 µM and 8.15 µM in assay [1]; 11.9 µM and 7.97 µM in assay [2]; 10.5 µM and 9.73 µM in assay [3]; 11.4 µM and 9.62 µM in assay [4]; 4.83 µM and 4.03 µM in assay [5]; 6.72 µM and 5.38 µM in assay [6]. In addition, the TGI in assay [7] is 1.63 µM and 2.15 µM; in assay [8], 15.1 µM and 16.5 µM.
For `CCNc1cc(-c2cccc(OC(F)(F)F)c2)nc2ccc(N3CCCC3)cc12`, the GI50 in assay [1] is 1070 nM; in assay [2], 2680 nM; in assay [3], 2.28 µM; in assay [4], 2200 nM; in assay [5], 1840 nM; in assay [6], 2360 nM. Further, the GI50 in assay [7] is 1810 nM; in assay [8], 1.8 µM. Further, the TGI in assay [1] is 2.76 µM; in assay [2], 10.5 µM; in assay [3], 7.61 µM; in assay [4], 5.88 µM; in assay [5], 6.54 µM; in assay [6], 7.63 µM. Besides, the TGI in assay [7] was 3.54 µM; in assay [8], 3.86 µM.
For `Cn1c(C(=O)c2ccncc2)cc2ccccc21`, the GI50 was 26200 nM in assay [1]; over 100000 nM in assay [2]; over 100 µM in assay [3]; over 100000 nM in assay [4]; over 100000 nM in assay [5]; over 100000 nM in assay [6]. The GI50 in assay [7] is over 100000 nM; in assay [8], over 100 µM. Further, the TGI in assay [1], in assay [2], in assay [3], in assay [4], in assay [5] and in assay [6] was over 100 µM each time. Moreover, the TGI in assay [7] and in assay [8] was over 100 µM in each case.
